These are literature values, as cited in publication PMC9186412, “Rational Framework for the Design of Trp- and Arg-Rich Peptide Antibiotics Against Multidrug-Resistant Bacteria” (Frontiers in Microbiology, 2022).

For this data set, the system named is CDC AR isolates. Set-up: key: S (green), susceptible; I (blue), intermediate; R (red), resistant. To be noted: data provided by the CDC, ref CDC, cited from earlier work. From the text: Supplement Table_3.XLSX, sheet "CDC AR isolates profiles" | column: G(-) strains
[1] abbreviates: Acinetobacter baumannii AB273, CDC AR isolate.
Setting [2] is: Acinetobacter baumannii AB274, CDC AR isolate.
Where [3] appears, read: Acinetobacter baumannii AB275, CDC AR isolate.
Setting [4] is: Acinetobacter baumannii AB276, CDC AR isolate.
Setting [5] is: Pseudomonas aeruginosa PA229, CDC AR isolate.
Setting [6] is: Pseudomonas aeruginosa PA230, CDC AR isolate.
Setting [7] is: Pseudomonas aeruginosa PA231, CDC AR isolate.
Setting [8] is: Pseudomonas aeruginosa PA232, CDC AR isolate.
Setting [9] is: Pseudomonas aeruginosa PA239, CDC AR isolate.
The mark [10] stands for this setting: Enterobacter cloacae E62, CDC AR isolate.
Setting [11] is: Enterobacter cloacae E544, CDC AR isolate.
[12] abbreviates: Enterobacter cloacae E545, CDC AR isolate.
Setting [13] is: Enterobacter cloacae E546, CDC AR isolate.
[14] abbreviates: Escherichia coli EC541, CDC AR isolate.
Setting [15] is: Escherichia coli EC543, CDC AR isolate.
Setting [16] is: Escherichia coli EC544, CDC AR isolate.
Where [17] appears, read: Escherichia coli EC549, CDC AR isolate.
Where [18] appears, read: Klebsiella pneumoniae KP542, CDC AR isolate.
The mark [19] stands for this setting: Klebsiella pneumoniae KP548, CDC AR isolate.
Setting [20] is: Klebsiella pneumoniae KP550, CDC AR isolate.
The mark [21] stands for this setting: Klebsiella pneumoniae KP552, CDC AR isolate.

Where two headings read alike, the source gives them in different places.

As to `CCN1CCN(C(=O)N[C@@H](C(=O)N[C@@H]2C(=O)N3[C@@H]2SC(C)(C)[C@@H]3C(=O)O)c2ccccc2)C(=O)C1=O` [Piperacillin], the Antibiotic susceptibility profile entry reads like this: under setting [1], “R”; under setting [2], “R”; under setting [3], “R”; under setting [4], “R”; under setting [5], “R”; under setting [6], “R”. Further, the Antibiotic susceptibility profile result under setting [7] is “R”, the Antibiotic susceptibility profile entry under setting [8] is given as “S” and the Antibiotic susceptibility profile entry under setting [9] is given as “R”.

For `CN(C)c1cc(NC(=O)CNC(C)(C)C)c(O)c2c1C[C@H]1C[C@H]3[C@H](N(C)C)C(O)=C(C(N)=O)C(=O)[C@@]3(O)C(O)=C1C2=O` [Tigecycline], the Antibiotic susceptibility profile entry reads like this: under setting [10], “S”; under setting [11], “R”; under setting [12], “R”; under setting [13], “S”; under setting [14], “S”; under setting [15], “S”. Besides, the Antibiotic susceptibility profile entry is “S” under setting [16]; “S” under setting [17]; “S” under setting [18]; “I” under setting [19]; “S” under setting [20]; “S” under setting [21].

On to `C[C@H]1[C@H](NC(=O)/C(=N\OC(C)(C)C(=O)O)c2csc(N)n2)C(=O)N1S(=O)(=O)O` [Azreonam], for which the Antibiotic susceptibility profile result under setting [14] is listed as “R”; the Antibiotic susceptibility profile entry under setting [15] is given as “R”; the Antibiotic susceptibility profile entry under setting [16] is given as “R”; the Antibiotic susceptibility profile result under setting [17] was “R”; the Antibiotic susceptibility profile entry under setting [18] is “R”; the Antibiotic susceptibility profile result under setting [19] is listed as “R”. The Antibiotic susceptibility profile result is given as “R” under setting [20]; “R” under setting [21]; “R” under setting [5]; “S” under setting [6]; “R” under setting [7]; “S” under setting [8]. Also, the Antibiotic susceptibility profile entry under setting [9] is “R”.

As for `CO/N=C(\C(=O)N[C@@H]1C(=O)N2C(C(=O)O)=C(CSc3nc(=O)c(=O)[nH]n3C)CS[C@H]12)c1csc(N)n1` [Ceftriaxone], the Antibiotic susceptibility profile entry reads like this: under setting [1], “R”; under setting [2], “R”; under setting [3], “R”; under setting [4], “R”; under setting [10], “R”; under setting [11], “R”. Besides, the Antibiotic susceptibility profile entry runs as follows: under setting [12], “R”; under setting [13], “R”; under setting [14], “R”; under setting [15], “R”; under setting [16], “R”; under setting [17], “R”. Also, the Antibiotic susceptibility profile entry is given as “R” under setting [18], “R” under setting [19], “R” under setting [20] and “R” under setting [21].

As to `C/C(=C\C(=O)OCCCCCCCCC(=O)O)C[C@@H]1OC[C@H](C[C@@H]2O[C@H]2[C@@H](C)[C@H](C)O)[C@@H](O)[C@H]1O` [Mupirocin], the Antibiotic susceptibility profile result (Staphylococcus aureus SA561, CDC AR isolate) is “R”.

`CO/N=C(\C(=O)N[C@@H]1C(=O)N2C(C(=O)[O-])=C(C[N+]3(C)CCCC3)CS[C@H]12)c1csc(N)n1` [Cefepime]: the Antibiotic susceptibility profile entry by setting is: under setting [1], “R”; under setting [2], “R”; under setting [3], “R”; under setting [4], “R”; under setting [10], “S”; under setting [11], “R”. The Antibiotic susceptibility profile result reads like this: under setting [12], “R”; under setting [13], “R”; under setting [14], “R”; under setting [15], “R”; under setting [16], “R”; under setting [17], “R”. Moreover, the Antibiotic susceptibility profile result under setting [18] is “R”; the Antibiotic susceptibility profile result under setting [19] was “R”; the Antibiotic susceptibility profile result under setting [20] is given as “R”; the Antibiotic susceptibility profile result under setting [21] is given as “R”; the Antibiotic susceptibility profile entry under setting [5] was “R”; the Antibiotic susceptibility profile result under setting [6] was “R”. The Antibiotic susceptibility profile result was “R” under setting [7], “S” under setting [8] and “R” under setting [9].

As for `C[C@@H](O)[C@H]1C(=O)N2C(C(=O)O)=C(S[C@@H]3CN[C@H](C(=O)Nc4cccc(C(=O)O)c4)C3)[C@H](C)[C@H]12` [Ertapenem], the Antibiotic susceptibility profile result was “S” under setting [10]; “S” under setting [12]; “I” under setting [14]; “R” under setting [15]; “R” under setting [16]; “R” under setting [17]. Further, the Antibiotic susceptibility profile entry runs as follows: under setting [18], “R”; under setting [19], “R”; under setting [20], “R”; under setting [21], “R”.

Take `C[C@@H](O)[C@H]1C(=O)N2C(C(=O)O)=C(SCCN=CN)C[C@H]12` [Imipenem]: the Antibiotic susceptibility profile result is, setting by setting: under setting [1], “R”; under setting [2], “R”; under setting [3], “R”; under setting [4], “S”; under setting [10], “S”; under setting [11], “R”. Moreover, the Antibiotic susceptibility profile entry was “I” under setting [12]; “R” under setting [13]; “I” under setting [14]; “S” under setting [15]; “R” under setting [16]; “I” under setting [17]. In addition, the Antibiotic susceptibility profile result under setting [18] is “I”; the Antibiotic susceptibility profile entry under setting [19] is given as “R”; the Antibiotic susceptibility profile entry under setting [20] is on record as “R”; the Antibiotic susceptibility profile entry under setting [21] is recorded as “R”; the Antibiotic susceptibility profile result under setting [5] was “R”; the Antibiotic susceptibility profile result under setting [6] is on record as “R”. Moreover, the Antibiotic susceptibility profile result reads like this: under setting [7], “R”; under setting [8], “R”; under setting [9], “R”.

`CO/N=C(\C(=O)N[C@@H]1C(=O)N2C(C(=O)O)=C(COC(C)=O)CS[C@H]12)c1csc(N)n1` [Cefotaxime]: the Antibiotic susceptibility profile result by setting is: under setting [1], “R”; under setting [2], “R”; under setting [3], “R”; under setting [4], “R”; under setting [10], “R”; under setting [11], “R”. Besides, the Antibiotic susceptibility profile entry by setting is: under setting [12], “R”; under setting [13], “R”; under setting [14], “R”; under setting [15], “R”; under setting [16], “R”; under setting [17], “R”. Further, the Antibiotic susceptibility profile result by setting is: under setting [18], “R”; under setting [19], “R”; under setting [20], “R”; under setting [21], “R”.
